# Columns and labels:
# Escherichia coli = test: Antibacterial activity against Escherichia coli at </=64 ug/mL; No activity; format: functional, organism-based
# Enterococcus faecalis [1] = test: Antibacterial activity against Enterococcus faecalis; Range is 64->64; format: functional
# Mus musculus = test: Antibacterial activity against Staphylococcus aureus infection in mouse after i.v. administration (Vancomycin, ED50= 1.0 mg/kg ); format: functional; details: route intravenous
# Staphylococcus aureus [2] = test: Antibacterial activity against Staphylococcus aureus; format: functional
# Enterococcus faecalis [3] = test: Antibacterial activity against Enterococcus faecalis; Range is 4-8; format: functional
# Staphylococcus aureus [4] = test: Antibacterial activity against Staphylococcus aureus; Range is 1-2; format: functional
# Enterococcus faecalis [5] = test: Antibacterial activity against Enterococcus faecalis; format: functional
# Enterococcus faecalis [6] = test: Antibacterial activity against Enterococcus faecalis; Range is 16-32; format: functional
# Staphylococcus aureus [7] = test: Antibacterial activity against Staphylococcus aureus; Range is 4-8; format: functional
Structure (SMILES),MIC (Escherichia coli),MIC (Enterococcus faecalis [1]),MIC (Staphylococcus aureus [2]),MIC (Enterococcus faecalis [3]),MIC (Staphylococcus aureus [4]),MIC (Enterococcus faecalis [5]),MIC (Enterococcus faecalis [6]),MIC (Staphylococcus aureus [7]),ED50 (Mus musculus)
C[C@@H](c1ccccc1)[C@@H]1NC(=O)CNC(=O)[C@H](CO)NC(=O)[C@@H]([C@@H](O)[C@@H]2CNC(N)N2[C@H]2O[C@H](CO)[C@@H](O)[C@H](O)[C@@H]2O)NC(=O)[C@H]([C@@H](O)[C@@H]2CNC(N)N2)NC(=O)[C@@H](Cc2ccc(O[C@H]3O[C@H](COC(=O)C(c4ccccc4)c4ccccc4)[C@@H](O[C@H]4O[C@H](CO)[C@@H](O)[C@H](O)[C@@H]4O)[C@H](O)[C@@H]3O)cc2)NC1=O (stereo partly drawn),No activity,,,8 µg/mL,2 µg/mL,,,,
C[C@@H](c1ccccc1)[C@@H]1NC(=O)CNC(=O)[C@H](CO)NC(=O)[C@@H]([C@@H](O)[C@@H]2CNC(N)N2[C@H]2O[C@H](CO)[C@@H](O)[C@H](O)[C@@H]2O)NC(=O)[C@H]([C@@H](O)[C@@H]2CNC(N)N2)NC(=O)[C@@H](Cc2ccc(O[C@H]3O[C@H](CO)[C@@H](O[C@H]4O[C@H](COC(=O)CCC5CCCC5)[C@@H](O)[C@H](O)[C@@H]4O)[C@H](O)[C@@H]3O)cc2)NC1=O (stereo partly drawn),No activity,,1 µg/mL,,,4 µg/mL,,,
C[C@@H](c1ccccc1)[C@@H]1NC(=O)CNC(=O)[C@H](COC(=O)C(c2ccccc2)c2ccccc2)NC(=O)[C@@H]([C@@H](O)[C@@H]2CNC(N)N2[C@H]2O[C@H](CO)[C@@H](O)[C@H](O)[C@@H]2O)NC(=O)[C@H]([C@@H](O)[C@@H]2CNC(N)N2)NC(=O)[C@@H](Cc2ccc(O[C@H]3O[C@H](CO)[C@@H](O[C@H]4O[C@H](CO)[C@@H](O)[C@H](O)[C@@H]4O)[C@H](O)[C@@H]3O)cc2)NC1=O (stereo partly drawn),No activity,,> 64 µg/mL,,,> 64 µg/mL,,,
C[C@@H](c1ccccc1)[C@@H]1NC(=O)CNC(=O)[C@H](CO)NC(=O)[C@@H]([C@@H](O)[C@@H]2CNC(N)N2[C@H]2O[C@H](CO)[C@@H](O)[C@H](O)[C@@H]2O)NC(=O)[C@H]([C@@H](O)[C@@H]2CNC(N)N2)NC(=O)[C@@H](Cc2ccc(O[C@H]3O[C@H](COC(=O)CCC4CCCC4)[C@@H](O[C@H]4O[C@H](CO)[C@@H](O)[C@H](O)[C@@H]4O)[C@H](O)[C@@H]3O)cc2)NC1=O (stereo partly drawn),No activity,,2 µg/mL,,,8 µg/mL,,,
C[C@@H](c1ccccc1)[C@@H]1NC(=O)CNC(=O)[C@H](CO)NC(=O)[C@@H]([C@@H](O)[C@@H]2CNC(N)N2[C@H]2O[C@H](COC(=O)C(c3ccccc3)c3ccccc3)[C@@H](O)[C@H](O)[C@@H]2O)NC(=O)[C@H]([C@@H](O)[C@@H]2CNC(N)N2)NC(=O)[C@@H](Cc2ccc(O[C@H]3O[C@H](CO)[C@@H](O[C@H]4O[C@H](CO)[C@@H](O)[C@H](O)[C@@H]4O)[C@H](O)[C@@H]3O)cc2)NC1=O (stereo partly drawn),No activity,,> 64 µg/mL,,,> 64 µg/mL,,,

# Further lines, with some results ahead:
MIC (Escherichia coli),MIC (Enterococcus faecalis [1]),MIC (Staphylococcus aureus [2]),MIC (Enterococcus faecalis [3]),MIC (Staphylococcus aureus [4]),MIC (Enterococcus faecalis [5]),MIC (Enterococcus faecalis [6]),MIC (Staphylococcus aureus [7]),Structure (SMILES),ED50 (Mus musculus)
No activity,64 µg/mL,8 µg/mL,,,,,,CC(C)CC(=O)O[C@@H]1[C@@H](O[C@H]2[C@H](O)[C@H](O)[C@@H](Oc3ccc(C[C@H]4NC(=O)[C@H]([C@@H](C)c5ccccc5)NC(=O)CNC(=O)[C@H](CO)NC(=O)[C@@H]([C@@H](O)[C@@H]5CNC(N)N5[C@H]5O[C@H](CO)[C@@H](O)[C@H](O)[C@@H]5O)NC(=O)[C@H]([C@@H](O)[C@@H]5CNC(N)N5)NC4=O)cc3)O[C@@H]2CO)O[C@H](CO)[C@@H](O)[C@@H]1O (stereo partly drawn),3.5 mg/kg
No activity,,,,2 µg/mL,4 µg/mL,,,CCCC(CCC)C(=O)OC[C@H]1O[C@H](O[C@H]2[C@H](O)[C@H](O)[C@@H](Oc3ccc(C[C@H]4NC(=O)[C@H]([C@@H](C)c5ccccc5)NC(=O)CNC(=O)[C@H](CO)NC(=O)[C@@H]([C@@H](O)[C@@H]5CNC(N)N5[C@H]5O[C@H](CO)[C@@H](O)[C@H](O)[C@@H]5O)NC(=O)[C@H]([C@@H](O)[C@@H]5CNC(N)N5)NC4=O)cc3)O[C@@H]2CO)[C@@H](O)[C@@H](O)[C@@H]1O (stereo partly drawn),0.52 mg/kg
No activity,,,,,,32 µg/mL,8 µg/mL,CCCCCC(=O)OC[C@H]1O[C@H](Oc2ccc(C[C@H]3NC(=O)[C@H]([C@@H](C)c4ccccc4)NC(=O)CNC(=O)[C@H](CO)NC(=O)[C@@H]([C@@H](O)[C@@H]4CNC(N)N4[C@H]4O[C@H](CO)[C@@H](O)[C@H](O)[C@@H]4O)NC(=O)[C@H]([C@@H](O)[C@@H]4CNC(N)N4)NC3=O)cc2)[C@@H](O)[C@@H](O)[C@@H]1O[C@H]1O[C@H](CO)[C@@H](O)[C@H](O)[C@@H]1O (stereo partly drawn),
No activity,,> 64 µg/mL,,,> 64 µg/mL,,,CCCCCCC(=O)OC[C@H]1O[C@H](N2C(N)NC[C@H]2[C@H](O)[C@H]2NC(=O)[C@H]([C@@H](O)[C@@H]3CNC(N)N3)NC(=O)[C@@H](Cc3ccc(O[C@H]4O[C@H](CO)[C@@H](O[C@H]5O[C@H](CO)[C@@H](O)[C@H](O)[C@@H]5O)[C@H](O)[C@@H]4O)cc3)NC(=O)[C@H]([C@@H](C)c3ccccc3)NC(=O)CNC(=O)[C@H](CO)NC2=O)[C@@H](O)[C@@H](O)[C@@H]1O (stereo partly drawn),
No activity,,4 µg/mL,,,,32 µg/mL,,CC(C)CC(=O)O[C@H]1[C@H](O)[C@H](O)[C@@H](O[C@H]2[C@H](O)[C@H](O)[C@@H](Oc3ccc(C[C@H]4NC(=O)[C@H]([C@@H](C)c5ccccc5)NC(=O)CNC(=O)[C@H](CO)NC(=O)[C@@H]([C@@H](O)[C@@H]5CNC(N)N5[C@H]5O[C@H](CO)[C@@H](O)[C@H](O)[C@@H]5O)NC(=O)[C@H]([C@@H](O)[C@@H]5CNC(N)N5)NC4=O)cc3)O[C@@H]2CO)O[C@@H]1CO (stereo partly drawn),0.6 mg/kg
No activity,,,,,64 µg/mL,,8 µg/mL,CC(C)CC(=O)O[C@@H]1[C@H](O)[C@@H](O[C@H]2[C@H](O)[C@H](O)[C@@H](Oc3ccc(C[C@H]4NC(=O)[C@H]([C@@H](C)c5ccccc5)NC(=O)CNC(=O)[C@H](CO)NC(=O)[C@@H]([C@@H](O)[C@@H]5CNC(N)N5[C@H]5O[C@H](CO)[C@@H](O)[C@H](O)[C@@H]5O)NC(=O)[C@H]([C@@H](O)[C@@H]5CNC(N)N5)NC4=O)cc3)O[C@@H]2CO)O[C@H](CO)[C@H]1O (stereo partly drawn),2.6 mg/kg
No activity,,> 64 µg/mL,,,> 64 µg/mL,,,C[C@@H](c1ccccc1)[C@@H]1NC(=O)CNC(=O)[C@H](CO)NC(=O)[C@@H]([C@@H](O)[C@@H]2CNC(N)N2[C@H]2O[C@H](COC(=O)CCC3CCCC3)[C@@H](O)[C@H](O)[C@@H]2O)NC(=O)[C@H]([C@@H](O)[C@@H]2CNC(N)N2)NC(=O)[C@@H](Cc2ccc(O[C@H]3O[C@H](CO)[C@@H](O[C@H]4O[C@H](CO)[C@@H](O)[C@H](O)[C@@H]4O)[C@H](O)[C@@H]3O)cc2)NC1=O (stereo partly drawn),
No activity,,> 64 µg/mL,,,> 64 µg/mL,,,C[C@@H](c1ccccc1)[C@@H]1NC(=O)CNC(=O)[C@H](CO)NC(=O)[C@@H]([C@@H](O)[C@@H]2CNC(N)N2[C@H]2O[C@H](CO)[C@@H](O)[C@H](O)[C@@H]2O)NC(=O)[C@H]([C@@H](O)[C@@H]2CNC(N)N2)NC(=O)[C@@H](Cc2ccc(O[C@H]3O[C@H](CO)[C@@H](O[C@H]4O[C@H](CO)[C@@H](O)[C@H](O)[C@@H]4O)[C@H](O)[C@@H]3O)cc2)NC1=O (stereo partly drawn),

# Reference: ChEMBL document CHEMBL1146703, “Mannopeptimycin esters and carbonates, potent antibiotic agents against drug-resistant bacteria” (2004)
